Test results published in article PMC12596500, “Affinity-selected peptide ligands specifically bind i-motif DNA and modulate c-Myc gene expression” (Nucleic Acids Research, 2025).

Assays:
[1] = system: c-MycC52 iM; experiment: Fluorescent indicator displacement (FID) assay with Thiazole Orange; type: binding; settings: 1 µM c-MycC52, 2 µM TO, 10 mM sodium cacodylate pH 6.6, peptides 25-200 µM, n = 3
Procedure: Fluorescent indicator displacement (FID) experiments used in this publication are based on the first FID assay developed for iM DNA [35]. The FID experiments were performed on a BMG CLARIOstar plate reader using 96-well, solid black flat-bottom plates. Thiazole Orange (TO) was the indicator, and the stock solution was prepared at 10 mM in DMSO. The TO stock was diluted into the appropriate buffer to 2 µM. Each well received 9 µl of the 2 µM TO solution, was excited at 430 nm, and fluorescence emission at 450 nm was measured; this was normalized to 0% to account for background fluorescence. One microlitre of […] DNA was added to each well and shaken in the plate reader for 30 s using double orbital shaking at 700 rpm and left for 10 min to equilibrate. Following equilibration, fluorescence emission was measured and normalized to 100% representing maximum fluorescence. Peptides were titrated starting at 25 µM, with 0.9 µl additions into each well in triplicate, until a final concentration of 200 µM was reached, and fluorescence emission was measured after each addition. Fluorescence emission for each well was normalized between 0% and 100%, which was taken away from 100 to give the percentage of displacement. The data were analyzed in Origin data analysis software and fitted with a hyperbolic dose–response curve from which the DC50 value was interpolated.
The relative binding of the five peptide ligands to the folded c-MycC52 iM was assessed via a FID assay using TO (Fig. 1). These experiments were performed in 10 mM sodium cacodylate at pH 6.6, the transitional pH of the c-Myc iM-forming sequence. As iM-formation is reduced at higher pH and higher ionic strength, additional stabilizing cations were avoided to allow the highest proportion of iM formation at the highest pH, to represent as close to physiological pH conditions as possible.
Figure 1. Concentration-dependent interaction of peptides with c-MycC52 iM determined via FID assay. The assay was performed with 1 µM c-MycC52 in 10 mM sodium cacodylate, pH 6.6, in the presence of 2 µM TO. Peptide ligands were added in increments of 25 µM up to a final concentration of 200 µM. Data are presented as mean ± SD (n = 3) and fitted using a Hill-Slope dose–response curve.

[2] = system: dsDNA (DS); experiment: CD melting of double-stranded DNA; type: binding; settings: 10 µM DS, 10 mM NaCaco pH 6.6, 10 molar eqv. peptide vs buffer; n=2
Procedure: Circular Dichroism (CD) melting experiments were performed in a Jasco J-1500 spectropolarimeter with 10 µM DNA samples in 10 mM sodium cacodylate buffer at pH 6.6 using a 1 mm path length quartz cuvette. […] The samples were kept at 5°C for 5 min before starting the melt, with a temperature increase of 1°C/min, a 0.5°C data interval, and a 60-s holding time at each target temperature. Four scans were accumulated data pitch of 0.5 nm, a scanning speed of 200 nm/min, 1 s response time, 2 nm bandwidth, and 200 mdeg sensitivity. Furthermore, two CD melting experiment repeats were performed recording C-rich c-Myc at 288 and 320 nm, G-rich c-Myc at 264 and 320 nm, and dsDNA at 253 and 320 nm with the settings as described for full spectrum measurements. Data were zero corrected to 320 nm and baseline drift. The melting temperature (TM) was concluded using the Boltzmann or biphasic fitting curve on the folded fraction data using GraphPad Prism version 10.1.2. Data were processed as mean ± SEM (n = 4) and one-way ANOVA followed by Bonferroni post-hoc test to determine significant changes between peptides and controls.

[3] = target: short c-Myc iM-forming sequence; settings: cited from earlier work
Procedure: To support the experiments on the stabilizing properties of the peptides, we also performed direct binding measurements of Pep-VSE and Pep-PTN using UV titrations. Binding curves are provided in Supplementary Fig. S11, and Kds are in Table 2. These experiments reveal tight binding of both PTN (0.93 ± 0.08 µM) and VSE (0.43 ± 0.03 µM) compared to other DNA structures. Although binding was detected for both peptides against c-MycG52, the G4-forming sequence in the complementary strand, there was no plateau at the concentrations examined. So, we have estimated a lower limit of 50 µM as the potent ...

Q: With “EIEY TDHMK ELG [Pep-EIE, linear 12-mer peptide selected by phage display against c-MycC52; N-terminal acetylation, C-terminal amidation]” as the molecule, how does the “relative binding affinity ranking (TO displacement)” value [1] read?
A: Its value is “SLC > PTN > VSE > EIE > RVS”.

Q: Which results are given for “SLCDIIRIEKVR [Pep-SLC, linear 12-mer peptide selected by phage display against c-MycC52; N-terminal acetylation, C-terminal amidation]”?
A: relative binding affinity ranking (TO displacement) [1]: SLC > PTN > VSE > EIE > RVS; destabilization of dsDNA (decrease in TM) [2]: 5 °C

Q: With `NC[C@H]1O[C@H](O[C@H]2[C@H](O)[C@@H](O[C@H]3O[C@H](CO)[C@@H](O)[C@H](N)[C@H]3O)[C@H](N)C[C@@H]2N)[C@H](N)C[C@@H]1O` [tobramycin] as the molecule, how does the Kd [3] read?
A: The Kd was 13 µM.

Q: With “RVS TDHMK GRGG [Pep-RVS, linear 12-mer peptide selected by phage display against c-MycC52; N-terminal acetylation, C-terminal amidation]” as the molecule, how does the “relative binding affinity ranking (TO displacement)” value [1] read?
A: Its value is “SLC > PTN > VSE > EIE > RVS”.
